Measurements published in US12503436B2, “Compounds and compositions for treating conditions associated with STING activity” (NOVARTIS PHARMA AG, priority 2021, dated 2025).

molecular target: STING (Homo sapiens, UniProt Q86WV6, G230A/H232R/R293Q/R71H); experiment: STING reporter assay in THP1-Dual KO-IFNAR2 cells (2′3′cGAMP stimulation, luciferase reporter); assay type: cell-based; conditions: 15 μM 2′3′cGAMP stimulation, 24 h, read-out: Pharmaron, THP1_IFNAR2 STING 24 h Luci Normalized: GeoMean EC50
Sequence (Q86WV6 whole entry R71H/G230A/H232R/R293Q): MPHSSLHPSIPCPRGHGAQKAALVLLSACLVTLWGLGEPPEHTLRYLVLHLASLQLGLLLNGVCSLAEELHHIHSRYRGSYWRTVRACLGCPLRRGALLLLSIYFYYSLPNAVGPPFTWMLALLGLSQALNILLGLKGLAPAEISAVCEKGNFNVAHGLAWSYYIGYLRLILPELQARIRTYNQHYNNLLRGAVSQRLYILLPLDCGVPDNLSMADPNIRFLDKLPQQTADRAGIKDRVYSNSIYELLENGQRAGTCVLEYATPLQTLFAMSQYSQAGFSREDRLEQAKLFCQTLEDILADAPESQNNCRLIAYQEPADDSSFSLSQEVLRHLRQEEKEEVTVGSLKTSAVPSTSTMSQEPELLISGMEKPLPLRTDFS
Summary of the method: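 THP1-Dual KO-IFNAR2 cells (2×10E6 cells/mL) with compounds at 0.0017-100 μM final, stimulated with 15 μM final 2′3′cGAMP delivered by Lipofectamine 2000; 24 h at 37 °C. Luciferase in supernatant read with QUANTI-Luc Plus; EC50 derived from luminescence.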

Compound | EC50 [nM]
O=C(Nc1c[nH]c2ccc(CCOc3ccc(C(F)(F)F)cc3)cc12)[C@H]1C[C@@H](O)C1 [Compound 179, (1S,3S)-3-hydroxy-N-(5-{2-[4-(trifluoromethyl)phenoxy]ethyl}-1H-indol-3-yl)cyclobutane-1-carboxamide] | 200 to 1000
O=C(Nc1c[nH]c2ccc(OCCc3ccc(C(F)(F)F)cc3)cc12)C1CC(O)C1 (stereo not drawn) [Compound 180, 3-hydroxy-N-(5-(4-(trifluoromethyl)phenethoxy)-1H-indol-3-yl)cyclobutane-1-carboxamide] | 200 to 1000
O=C(Nc1c[nH]c2ccc(OCC[C@@H]3C[C@@H]4CN(CC(F)(F)F)C[C@@H]4C3)cc12)C1CC1 [Compound 182, N-(5-(2-((3aR,5r,6aS)-2-(2,2,2-trifluoroethyl)octahydrocyclopenta[c]pyrrol-5-yl)ethoxy)-1H-indol-3-yl)cyclopropanecarboxamide] | 200 to 1000
O=C(Nc1c[nH]c2ccc(OCCc3cnc(N4CCC(F)(F)CC4)c(F)c3)cc12)C1CC1 [Compound 183, N-(5-(2-(6-(4,4-difluoropiperidin-1-yl)-5-fluoropyridin-3-yl)ethoxy)-1H-indol-3-yl)cyclopropanecarboxamide] | 200 to 1000
CC(=O)Nc1c[nH]c2ccc(CCOc3cnc(C(F)(F)F)nc3)cc12 [Compound 184, N-(5-(2-((2-(trifluoromethyl)pyrimidin-5-yl)oxy)ethyl)-1H-indol-3-yl)acetamide] | 5000 to 100000
N#CC1CCC1C(=O)Nc1c[nH]c2ccc(OCCc3ccc(C(F)(F)F)cc3)cc12 (stereo not drawn) [Compound 187, 2-cyano-N-(5-(4-(trifluoromethyl)phenethoxy)-1H-indol-3-yl)cyclobutane-1-carboxamide] | 200 to 1000
N#C[C@@H]1C[C@@H]1C(=O)Nc1c[nH]c2ccc(OCCc3ccc(C(F)(F)F)cc3)cc12 [Compound 188, (1S,2R)-2-cyano-N-(5-(4-(trifluoromethyl)phenethoxy)-1H-indol-3-yl)cyclopropane-1-carboxamide] | 200 to 1000

The remaining lines, values ahead:

EC50 [nM] | Compound
200 to 1000 | O=C(Nc1c[nH]c2ccc(OCCc3ccc(C(F)(F)F)cc3)cc12)C1CC1(F)F (stereo not drawn) [Compound 181, 2,2-difluoro-N-(5-(4-(trifluoromethyl)phenethoxy)-1H-indol-3-yl)cyclopropane-1-carboxamide]
200 to 1000 | O=C(Nc1c[nH]c2ccc(OCCc3ccc(C(F)(F)F)cc3)cc12)C1(C(F)(F)F)CC1 [Compound 185, 1-(trifluoromethyl)-N-(5-(4-(trifluoromethyl)phenethoxy)-1H-indol-3-yl)cyclopropane-1-carboxamide]
200 to 1000 | CC(C)(C)C(=O)Nc1c[nH]c2ccc(OCCc3ccc(C(F)(F)F)cc3)cc12 [Compound 186, N-(5-(4-(trifluoromethyl)phenethoxy)-1H-indol-3-yl)pivalamide]
200 to 1000 | CC1(C(=O)Nc2c[nH]c3ccc(OCCc4ccc(C(F)(F)F)cc4)cc23)CCOC1 (stereo not drawn) [Compound 189, 3-methyl-N-(5-(4-(trifluoromethyl)phenethoxy)-1H-indol-3-yl)tetrahydrofuran-3-carboxamide]
200 to 1000 | O=C(Nc1c[nH]c2ccc(OCCc3ccc(C(F)(F)F)cc3)cc12)[C@H]1C[C@@H](O)C1 [Compound 190, (1S,3S)-3-hydroxy-N-(5-(4-(trifluoromethyl)phenethoxy)-1H-indol-3-yl)cyclobutanecarboxamide]
200 to 1000 | CC1(C(=O)Nc2c[nH]c3ccc(OCCc4ccc(C(F)(F)F)cc4)cc23)CCCO1 (stereo not drawn) [Compound 191, 2-methyl-N-(5-(4-(trifluoromethyl)phenethoxy)-1H-indol-3-yl)tetrahydrofuran-2-carboxamide]
40 to 200 | CC1(C)CC1C(=O)Nc1c[nH]c2ccc(OCCc3ccc(C(F)(F)F)cc3)cc12 (stereo not drawn) [Compound 192, 2,2-dimethyl-N-(5-(4-(trifluoromethyl)phenethoxy)-1H-indol-3-yl)cyclopropane-1-carboxamide]
200 to 1000 | N#CC1(C(=O)Nc2c[nH]c3ccc(OCCc4ccc(C(F)(F)F)cc4)cc23)CC1 [Compound 193, 1-cyano-N-(5-(4-(trifluoromethyl)phenethoxy)-1H-indol-3-yl)cyclopropane-1-carboxamide]
